Results: ChEMBL document CHEMBL1201862, “PubChem BioAssay data set” (2004)
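Step 1: Grow cells in 96-well plates. Step 2: Expose to compound for 48 hours at 5 concentrations. Step 3: Interpolate endpoints linearly; if unreached, use highest concentration. GI50 = concentration required for 50% inhibition of growth.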 Active and inactive are the calls of the source. Cut-off read from the data, not from the text of the source: active = GI50 up to about 1.1 µM and inactive = higher.

Columns and labels:
Assay in all cases: NCI tumour cell line growth inhibition, 48 h
[1] = tested on: 786-0
[2] = tested on: HCT-116
[3] = tested on: HCT-15
[4] = tested on: HL-60
[5] = tested on: HT-29
[6] = tested on: Hs-578T
[7] = tested on: KM12
[8] = tested on: MDA-N
[9] = tested on: NCI-H522
[10] = tested on: OVCAR-4
[11] = tested on: SF-268
[12] = tested on: SF-295
[13] = tested on: SF-539
[14] = tested on: SK-MEL-28
[15] = tested on: SK-MEL-2
[16] = tested on: SK-MEL-5
[17] = tested on: SN12C
[18] = tested on: UACC-62
[19] = tested on: UO-31
[20] = tested on: SR

| SMILES | GI50 [1] | GI50 [2] | GI50 [3] | GI50 [4] | GI50 [5] | GI50 [6] | GI50 [7] | GI50 [8] | GI50 [9] | GI50 [10] | GI50 [11] | GI50 [12] | GI50 [13] | GI50 [14] | GI50 [15] | GI50 [16] | GI50 [17] | GI50 [18] | GI50 [19] | GI50 [20] |
| --- | --- | --- | --- | --- | --- | --- | --- | --- | --- | --- | --- | --- | --- | --- | --- | --- | --- | --- | --- | --- |
| C[N+](C)(C)c1ncnc2c1ncn2C1CCCO1 (configuration not stated) | > 100 µM (inactive) | > 100 µM (inactive) | > 100 µM | 56.4 µM (inactive) | > 100 µM (inactive) | > 100 µM (inactive) | > 100 µM (inactive) | > 100 µM (inactive) | > 100 µM (inactive) | > 100 µM (inactive) | > 100 µM (inactive) | > 100 µM (inactive) | > 100 µM (inactive) | > 100 µM (inactive) | > 100 µM (inactive) | > 100 µM (inactive) | > 100 µM (inactive) | > 100 µM (inactive) | > 100 µM (inactive) | – |
| COc1nc2c(c(=O)[nH]1)N=C(c1ccc([N+](=O)[O-])cc1)CC(c1ccccc1)N2 (configuration not stated) | > 100 µM (inactive) | 34.5 µM (inactive) | – | 16 µM (inactive) | > 100 µM (inactive) | – | 70.5 µM (inactive) | > 100 µM (inactive) | 66.4 µM (inactive) | 62.8 µM (inactive) | – | > 100 µM (inactive) | > 100 µM (inactive) | 94.8 µM (inactive) | > 100 µM (inactive) | 49.7 µM (inactive) | > 100 µM (inactive) | 59.2 µM (inactive) | 62.4 µM (inactive) | 99.1 µM (inactive) |
| COP(=O)(OC)C(O)CC(C)C (configuration not stated) | > 100 µM (inactive) | > 100 µM (inactive) | – | > 100 µM (inactive) | > 100 µM (inactive) | – | > 100 µM (inactive) | > 100 µM (inactive) | – | > 100 µM (inactive) | – | > 100 µM (inactive) | – | > 100 µM (inactive) | > 100 µM (inactive) | > 100 µM (inactive) | > 100 µM (inactive) | > 100 µM (inactive) | > 100 µM (inactive) | – |
| Cc1ccc(Cc2n[nH]c(=O)n2-c2ccccc2)cc1 | > 100 µM (inactive) | > 100 µM (inactive) | > 100 µM | > 100 µM (inactive) | > 100 µM (inactive) | – | > 100 µM (inactive) | > 100 µM (inactive) | – | – | > 100 µM (inactive) | > 100 µM (inactive) | > 100 µM (inactive) | > 100 µM (inactive) | 73.1 µM (inactive) | > 100 µM (inactive) | > 100 µM (inactive) | 55.3 µM (inactive) | 86.7 µM (inactive) | > 100 µM (inactive) |
